In patent publication US6737383B1, “Herbicidal oxadiazolidines” (priority 1999, dated 2004):

Assays:
bedstraw = experiment: Test B pre/postemergence bedstraw; assay type: in vivo, Galium aparine
Summary of the method: (§1)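 Herbicidal effect was estimated by eye on a ten-point control scale after plants spent twelve to sixteen days in a greenhouse following soil or foliar treatment. Foliar sprays targeted plants at one to four leaves; all doses were formulated in a non-phytotoxic solvent with surfactant.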

blackgrass = experiment: Test B pre/postemergence blackgrass; assay type: in vivo, Alopecurus myosuroides
Summary of the method: as §1

surinam grass = experiment: Test B pre/postemergence surinam grass; assay type: in vivo, Brachiaria decumbens
Summary of the method: as §1

cocklebur = experiment: Test B pre/postemergence cocklebur; assay type: in vivo, Xanthium strumarium
Summary of the method: as §1

corn = experiment: Test B pre/postemergence corn; assay type: in vivo, Zea mays
Summary of the method: as §1

crabgrass = experiment: Test B pre/postemergence crabgrass; assay type: in vivo, Digitaria sanguinalis
Summary of the method: as §1

giant foxtail = experiment: Test B pre/postemergence giant foxtail; assay type: in vivo, Setaria faberii
Summary of the method: as §1

rape = experiment: Test B pre/postemergence rape; assay type: in vivo, Brassica napus
Summary of the method: as §1

soybean = experiment: Test B pre/postemergence soybean; assay type: in vivo, Glycine max
Summary of the method: as §1

sugar beet = experiment: Test B pre/postemergence sugar beet; assay type: in vivo, Beta vulgaris
Summary of the method: as §1

velvetleaf = experiment: Test B pre/postemergence velvetleaf; assay type: in vivo, Abutilon theophrasti
Summary of the method: as §1

wheat = experiment: Test B pre/postemergence wheat; assay type: in vivo, Triticum aestivum
Summary of the method: as §1

purple nutsedge = experiment: Test B pre/postemergence purple nutsedge; assay type: in vivo, Cyperus rotundus
Summary of the method: as §1

rice = experiment: Test B flood test rice; assay type: in vivo, Oryza sativa
Summary of the method: (§2)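 Flood test on plants grown to the 2-leaf stage; treated plants kept in greenhouse twelve to sixteen days, then visually rated against controls on a 0 (no effect) to 10 (complete control) scale.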

smallflower flatsedge = experiment: Test B flood test smallflower flatsedge; assay type: in vivo, Cyperus difformis
Summary of the method: as §2

duck salad = experiment: Test B flood test duck salad; assay type: in vivo, Heteranthera limosa
Summary of the method: as §2

bamyardgrass = experiment: Test B flood test barnyardgrass; assay type: in vivo, Echinochloa crus-galli
Summary of the method: as §2

[1] = Postemergence, Rate 62 g/ha, scale 0 to 10, 0 is no effect, 10 is complete control
[2] = Postemergence, Rate 250 g/ha, scale 0 to 10, 0 no effect, 10 complete control
[3] = Preemergence, Rate 31 g/ha, visual rating, scale 0 to 10 (0 no effect, 10 complete control)
[4] = Preemergence, Rate 62 g/ha, scale 0 to 10, 0 is no effect, 10 is complete control
[5] = Preemergence, Rate 125 g/ha, scale 0 to 10 (0 no effect, 10 complete control)
[6] = Preemergence, Rate 250 g/ha, scale of 0 to 10 where 0 is no effect and 10 is complete control
[7] = Rate 31 g/ha, Postemergence, scale 0 to 10
[8] = Rate 125 g/ha, Postemergence, scale 0 to 10, 0 no effect, 10 complete control
[9] = Rate 125 g/ha, Postemergence section (flood test species), scale 0 to 10, 0 no effect, 10 complete control
[10] = Rate 250 g/ha, headed Pre-emergence (flood test species), scale 0 to 10 (0 no effect, 10 complete control)
[11] = Rate 500 g/ha, Postemergence section of Table B, 0 to 10 scale (0 no effect, 10 complete control)
[12] = Rate 500 g/ha, headed Pre-emergence (flood test species), scale 0 to 10 (0 no effect, 10 complete control)
[13] = Rate 1000 g/ha, Pre-emergence (as headed), scale 0 to 10
[14] = Rate 2000 g/ha, Pre-emergence (as headed), scale 0 to 10
[15] = flood test, listed under Postemergence, Rate 250 g/ha, scale 0 to 10, 0 no effect, 10 complete control

SMILES: COc1ccccc1-n1c(=O)on(C(=O)N(c2ccc(F)cc2)C(C)C)c1=O [Compound 30]
- Bedstraw plant response rating (bedstraw; [1]): 0
- Bedstraw plant response rating (bedstraw; [2]): 0
- Bedstraw plant response rating (bedstraw; [3]): 0
- Plant response rating, Bedstraw (bedstraw; [4]): 0
- Plant response rating, Bedstraw (bedstraw; [5]): 0
- Plant response rating, Bedstraw (bedstraw; [6]): 0
- Bedstraw plant response rating (bedstraw; [7]): 0
- Bedstraw plant response rating (bedstraw; [8]): 0
- Blackgrass plant response rating (blackgrass; [1]): 0
- Blackgrass plant response rating (blackgrass; [2]): 2
- Blackgrass plant response rating (blackgrass; [3]): 0
- Plant response rating, Blackgrass (blackgrass; [4]): 3
- Plant response rating, Blackgrass (blackgrass; [5]): 3
- Plant response rating, Blackgrass (blackgrass; [6]): 7
- Blackgrass plant response rating (blackgrass; [7]): 0
- Blackgrass plant response rating (blackgrass; [8]): 0
- B. signalgrass plant response rating (surinam grass; [1]): 0
- B. signalgrass plant response rating (surinam grass; [2]): 0
- B. signalgrass plant response rating (surinam grass; [3]): 0
- Plant response rating, B. signalgrass (surinam grass; [4]): 0
- Plant response rating, B. signalgrass (surinam grass; [5]): 0
- Plant response rating, B. signalgrass (surinam grass; [6]): 4
- B. signalgrass plant response rating (surinam grass; [7]): 0
- B. signalgrass plant response rating (surinam grass; [8]): 0
- Cocklebur plant response rating (cocklebur; [1]): 0
- Cocklebur plant response rating (cocklebur; [2]): 0
- Cocklebur plant response rating (cocklebur; [3]): 0
- Plant response rating, Cocklebur (cocklebur; [4]): 0
- Plant response rating, Cocklebur (cocklebur; [5]): 0
- Cocklebur plant response rating (cocklebur; [7]): 0
- Cocklebur plant response rating (cocklebur; [8]): 0
- Corn plant response rating (corn; [1]): 0
- Corn plant response rating (corn; [2]): 0
- Corn plant response rating (corn; [3]): 0
- Plant response rating, Corn (corn; [4]): 0
- Plant response rating, Corn (corn; [5]): 0
- Plant response rating, Corn (corn; [6]): 0
- Corn plant response rating (corn; [7]): 0
- Corn plant response rating (corn; [8]): 0
- Crabgrass plant response rating (crabgrass; [1]): 1
- Crabgrass plant response rating (crabgrass; [2]): 9
- Crabgrass plant response rating (crabgrass; [3]): 2
- Plant response rating, Crabgrass (crabgrass; [4]): 3
- Plant response rating, Crabgrass (crabgrass; [5]): 9
- Plant response rating, Crabgrass (crabgrass; [6]): 10
- Crabgrass plant response rating (crabgrass; [7]): 0
- Crabgrass plant response rating (crabgrass; [8]): 8
- Giant foxtail plant response rating (giant foxtail; [1]): 0
- Giant foxtail plant response rating (giant foxtail; [2]): 3
- Giant foxtail plant response rating (giant foxtail; [3]): 2
- Plant response rating, Giant foxtail (giant foxtail; [4]): 2
- Plant response rating, Giant foxtail (giant foxtail; [5]): 3
- Plant response rating, Giant foxtail (giant foxtail; [6]): 10
- Giant foxtail plant response rating (giant foxtail; [7]): 0
- Giant foxtail plant response rating (giant foxtail; [8]): 2
- Rape plant response rating (rape; [1]): 0
- Rape plant response rating (rape; [2]): 0
- Rape plant response rating (rape; [3]): 0
- Plant response rating, Rape (rape; [4]): 0
- Plant response rating, Rape (rape; [5]): 0
- Plant response rating, Rape (rape; [6]): 0
- Rape plant response rating (rape; [7]): 0
- Rape plant response rating (rape; [8]): 0
- Soybean plant response rating (soybean; [1]): 1
- Soybean plant response rating (soybean; [2]): 2
- Soybean plant response rating (soybean; [3]): 0
- Plant response rating, Soybean (soybean; [4]): 0
- Plant response rating, Soybean (soybean; [5]): 0
- Plant response rating, Soybean (soybean; [6]): 0
- Soybean plant response rating (soybean; [8]): 1
- Sugarbeets plant response rating (sugar beet; [1]): 0
- Sugarbeets plant response rating (sugar beet; [2]): 0
- Sugarbeets plant response rating (sugar beet; [3]): 0
- Plant response rating, Sugarbeets (sugar beet; [4]): 0
- Plant response rating, Sugarbeets (sugar beet; [5]): 0
- Plant response rating, Sugarbeets (sugar beet; [6]): 0
- Sugarbeets plant response rating (sugar beet; [8]): 0
- Velvetleaf plant response rating (velvetleaf; [1]): 0
- Velvetleaf plant response rating (velvetleaf; [2]): 0
- Velvetleaf plant response rating (velvetleaf; [3]): 0
- Plant response rating, Velvetleaf (velvetleaf; [4]): 0
- Plant response rating, Velvetleaf (velvetleaf; [5]): 0
- Plant response rating, Velvetleaf (velvetleaf; [6]): 3
- Velvetleaf plant response rating (velvetleaf; [8]): 0
- Wheat plant response rating (wheat; [1]): 0
- Wheat plant response rating (wheat; [2]): 0
- Wheat plant response rating (wheat; [3]): 0
- Plant response rating, Wheat (wheat; [4]): 0
- Plant response rating, Wheat (wheat; [5]): 0
- Plant response rating, Wheat (wheat; [6]): 2
- Wheat plant response rating (wheat; [8]): 0
- Nutsedge plant response rating (purple nutsedge; [1]): 0
- Nutsedge plant response rating (purple nutsedge; [2]): 0
- Nutsedge plant response rating (purple nutsedge; [3]): 0
- Plant response rating, Nutsedge (purple nutsedge; [4]): 0
- Plant response rating, Nutsedge (purple nutsedge; [5]): 0
- Plant response rating, Nutsedge (purple nutsedge; [6]): 0
- Nutsedge plant response rating (purple nutsedge; [7]): 0
- Nutsedge plant response rating (purple nutsedge; [8]): 0
- Rice plant response rating (rice; [1]): 0
- Rice plant response rating (rice; [9]): 0
- Rice plant response rating (rice; [10]): 0
- Rice plant response rating (rice; [11]): 0
- Plant response rating, Rice (rice; [12]): 0
- Rice plant response rating (rice; [13]): 0
- Rice plant response rating (rice; [14]): 0
- Rice plant response rating (rice; [15]): 0
- S. Flatsedge plant response rating (smallflower flatsedge; [1]): 0
- S. Flatsedge plant response rating (smallflower flatsedge; Pre-emergence, Rate 1000 g/ha, scale 0 to 10 (0 no effect, 10 complete control)): 0
- S. Flatsedge plant response rating (smallflower flatsedge; [9]): 0
- S. Flatsedge plant response rating (smallflower flatsedge; [10]): 0
- Plant response rating, S. Flatsedge (smallflower flatsedge; [12]): 0
- S. Flatsedge plant response rating (smallflower flatsedge; [14]): 0
- S. Flatsedge plant response rating (smallflower flatsedge; [15]): 0
- Ducksalad plant response rating (duck salad; [1]): 0
- Ducksalad plant response rating (duck salad; [9]): 0
- Ducksalad plant response rating (duck salad; [10]): 0
- Ducksalad plant response rating (duck salad; [11]): 0
- Plant response rating, Ducksalad (duck salad; [12]): 0
- Ducksalad plant response rating (duck salad; [13]): 0
- Ducksalad plant response rating (duck salad; [14]): 0
- Ducksalad plant response rating (duck salad; [15]): 0
- Barnyardgrass plant response rating (bamyardgrass; [1]): 0
- Barnyardgrass plant response rating (bamyardgrass; [9]): 0
- Barnyardgrass plant response rating (bamyardgrass; [10]): 0
- Barnyardgrass plant response rating (bamyardgrass; [11]): 0
- Plant response rating, Barnyardgrass (bamyardgrass; [12]): 0
- Barnyardgrass plant response rating (bamyardgrass; [13]): 0
- Barnyardgrass plant response rating (bamyardgrass; Rate 2000 g/ha, Pre-emergence (as headed), scale 0 to 10, 0 no effect, 10 complete control): 0
- Barnyardgrass plant response rating (bamyardgrass; [15]): 0
